Test system: melan-a cells
Experiment: Melanin assay in cultured murine melanocytes (melan-a)
Type: cell-based
Conditions: 72 hours of incubation
Procedure: The Spectrum Collection library consisting of 2000 drug compounds or natural products represents a source for the identification of compounds useful in the present invention. The library may be screened to identify novel pigmentation inhibitors in cultured murine melanocytes (melan-a). Compounds are dissolved in dimethylsulfoxide (DMSO) to a final concentration of 10 mM. Screening is performed with cultured melanocytes in 24-well plates followed by melanin assay (see below). A minimum change of 50% in melanin formation is established as significant for a pigmentation inhibitor. DMSO may be used as a negative control and the widely used depigmenting agent, hydroquinone, may be used as a positive control on every plate. Primary screening is performed at a final concentration of 1 μM and potential candidates from the primary screening are reconfirmed in duplicate at final concentrations of 1 and 5 μM.
Melan-a cells are plated at 5×10^4 cells per well in 1 ml of culture media in 24-well plates the day before adding the library compounds. All compounds are added at the indicated final concentrations. Cells are harvested after 72 hours of incubation, and the melanin assay is performed.
For further test and mechanism of action studies, the compounds may be purchased from Sigma, MicroSource or other known suppliers. The compounds are dissolved in dimethylsulfoxide (DMSO) to a final concentration of 10 mM, and are tested for their effect on melanin synthesis at the indicated final concentrations.
For the primary and secondary screening, cells were harvested and dissolved in 200 μl of 2N NaOH in 20% DMSO at 70° C. A 180-μl aliquot of the resulting solution was measured for absorbance at 490 nm.
Cells are harvested in extraction buffer (1% Triton X-100, 50 mM Tris, 2 mM EDTA, 150 mM NaCl, pH 7.5) containing a complete protease inhibitor cocktail (Roche). The lysates were centrifuged at 14,000 rpm for 10 minutes at 4° C. BCA protein assay kit (Pierce) was used to measure the protein concentrations of the supernatants, and bovine serum albumin was used as a standard. The remaining pellets were incubated with 100 μl ethanol-ether (1:1) for 10 minutes at room temperature. After removing the ethanol-ether, the pellets were dissolved in 200 μl of 2N NaOH in 20% DMSO at 70° C. A 180-μl aliquot of the resulting solution was measured for absorbance at 490 nm. The melanin contents were normalized to the total amount of protein.
The compounds, their structures, inhibition data expressed as % of control remaining, are set forth in FIG. 1 and are shown in Table 1, below.

Compound: CC(C)=CCc1c2c(c3occ(-c4ccc(O)cc4)c(=O)c3c1O)C=CC(C)(C)O2 [ID 1, Osajin]
- % of control melanin remaining after treatment @ 1 μM: 99 % of control
- % of control melanin remaining after treatment @ 5 μM: 87 % of control

Compound: COc1ccc(-c2coc3c4c(c(CC=C(C)C)c(O)c3c2=O)OC(C)(C)C=C4)cc1 [ID 2, Osajin- 4′methyl ester]
- % of control melanin remaining after treatment @ 1 μM: 99 % of control
- % of control melanin remaining after treatment @ 5 μM: 70 % of control

Compound: CC(C)=CCc1c2c(c3occ(-c4ccc(O)c(O)c4)c(=O)c3c1O)C=CC(C)(C)O2 [ID 3, Pomiferin]
- % of control melanin remaining after treatment @ 1 μM: 53 % of control

Compound: COc1ccc(-c2coc3c4c(c(CC=C(C)C)c(O)c3c2=O)OC(C)(C)C=C4)cc1OC [ID 4, Pomiferin-3′,4′-dimethyl ether]
- % of control melanin remaining after treatment @ 1 μM: 80 % of control
- % of control melanin remaining after treatment @ 5 μM: 50 % of control

Compound: CC(C)=CCc1c2c(c(O)c3c(=O)c(-c4ccc(O)cc4)coc13)C=CC(C)(C)O2 [ID 5, Warangalone]
- % of control melanin remaining after treatment @ 1 μM: 100 % of control
- % of control melanin remaining after treatment @ 5 μM: 78 % of control
